Data taken from publication PMC9791655 (Journal of Medicinal Chemistry, 2022).
Values belong to the compound of their own block, whether it stands above or below them.

How the values were obtained:
human PDE9A = human PDE9A (Homo sapiens, UniProt O76083); assay: PDE9A scintillation proximity assay with 3H-cGMP; type: biochemical
mouse PDE9A = target: T1, mouse PDE9A (Mus musculus, UniProt O70628); assay: PDE9A scintillation proximity assay, mouse enzyme; type: biochemical
T1 sequence (O70628 1-534): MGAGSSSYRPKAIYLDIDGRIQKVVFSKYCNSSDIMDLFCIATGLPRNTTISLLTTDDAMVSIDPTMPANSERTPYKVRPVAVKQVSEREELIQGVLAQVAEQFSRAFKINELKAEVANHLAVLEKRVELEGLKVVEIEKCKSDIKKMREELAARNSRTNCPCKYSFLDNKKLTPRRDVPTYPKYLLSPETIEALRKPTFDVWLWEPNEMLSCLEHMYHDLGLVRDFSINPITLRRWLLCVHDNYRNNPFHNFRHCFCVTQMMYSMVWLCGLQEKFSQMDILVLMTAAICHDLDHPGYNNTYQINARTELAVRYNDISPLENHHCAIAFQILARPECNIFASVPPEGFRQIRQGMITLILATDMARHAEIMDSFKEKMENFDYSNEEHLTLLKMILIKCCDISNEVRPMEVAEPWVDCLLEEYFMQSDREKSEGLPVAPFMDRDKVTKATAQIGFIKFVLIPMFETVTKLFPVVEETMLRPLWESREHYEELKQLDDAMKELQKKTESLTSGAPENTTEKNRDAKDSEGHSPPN

rat PDE9A = target: T2, rat PDE9A (Rattus norvegicus, UniProt Q8QZV1); assay: PDE9A scintillation proximity assay, rat enzyme; type: biochemical
T2 sequence (Q8QZV1 1-534): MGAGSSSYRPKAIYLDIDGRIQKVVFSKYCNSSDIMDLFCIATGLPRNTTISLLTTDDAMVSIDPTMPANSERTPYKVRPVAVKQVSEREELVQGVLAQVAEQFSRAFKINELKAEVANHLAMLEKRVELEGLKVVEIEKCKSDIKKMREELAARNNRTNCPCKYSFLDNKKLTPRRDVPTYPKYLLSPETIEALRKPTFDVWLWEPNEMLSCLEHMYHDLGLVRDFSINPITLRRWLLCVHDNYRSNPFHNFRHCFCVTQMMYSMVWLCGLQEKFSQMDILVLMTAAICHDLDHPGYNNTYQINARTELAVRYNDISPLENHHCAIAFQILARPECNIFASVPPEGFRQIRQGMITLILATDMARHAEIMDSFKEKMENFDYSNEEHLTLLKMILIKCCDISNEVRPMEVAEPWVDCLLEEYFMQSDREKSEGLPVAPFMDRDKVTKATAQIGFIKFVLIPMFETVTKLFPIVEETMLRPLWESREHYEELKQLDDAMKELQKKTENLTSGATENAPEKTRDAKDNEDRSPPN

PDE2A = assay: PDE selectivity profiling; type: biochemical, human
PDE3B = assay: PDE selectivity profiling; type: biochemical, human
PDE7B = assay: PDE selectivity profiling; type: biochemical, human
PDE10A = assay: PDE selectivity profiling; type: biochemical, human
Pharmacokinetics in dogs = type: in vivo; conditions: dog, blood, iv, 0.3 mg/kg
CYP1A2 [1] = type: in vitro ADME; conditions: human hepatocytes
CYP3A4 mRNA = assay: CYP induction potential in human hepatocytes; type: in vitro ADME
[2] = Metabolite identification assay, hepatocyte incubation; type: in vitro ADME, rat
[3] = as above; type: in vitro ADME, human
75 off-targets (Panlabs) = assay: Panlabs off-target profile
hERG = hERG (Homo sapiens, UniProt Q12809); assay: Cardiac ion channel inhibition
Nav1.5 = Nav1.5 (Homo sapiens, UniProt Q14524); assay: Cardiac ion channel inhibition
urinary cGMP = assay: Urinary cGMP assay in rats; type: in vivo, rat; conditions: 40 mg/kg
CYP1A2 [4] = target: T3, CYP1A2 (Homo sapiens, UniProt P05177); conditions: at 20 μM
T3 sequence (P05177 1-516): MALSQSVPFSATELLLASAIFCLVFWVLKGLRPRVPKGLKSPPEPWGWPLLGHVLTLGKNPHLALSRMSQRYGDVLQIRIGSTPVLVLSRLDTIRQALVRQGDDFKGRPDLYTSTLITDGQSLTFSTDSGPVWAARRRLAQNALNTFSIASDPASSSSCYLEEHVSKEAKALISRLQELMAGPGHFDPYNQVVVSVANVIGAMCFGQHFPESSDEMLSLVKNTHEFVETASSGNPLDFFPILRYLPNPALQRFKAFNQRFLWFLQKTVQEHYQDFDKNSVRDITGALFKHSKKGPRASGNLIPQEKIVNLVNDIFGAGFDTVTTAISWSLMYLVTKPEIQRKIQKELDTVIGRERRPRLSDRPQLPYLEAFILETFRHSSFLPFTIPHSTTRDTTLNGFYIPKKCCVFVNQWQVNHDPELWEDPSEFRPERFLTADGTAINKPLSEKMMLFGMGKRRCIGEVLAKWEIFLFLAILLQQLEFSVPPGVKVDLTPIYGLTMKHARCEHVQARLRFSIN

CYP2C8 = target: T4, CYP2C8 (Homo sapiens, UniProt P10632); assay: CYP inhibition assay; conditions: at 20 μM
T4 sequence (P10632 1-490): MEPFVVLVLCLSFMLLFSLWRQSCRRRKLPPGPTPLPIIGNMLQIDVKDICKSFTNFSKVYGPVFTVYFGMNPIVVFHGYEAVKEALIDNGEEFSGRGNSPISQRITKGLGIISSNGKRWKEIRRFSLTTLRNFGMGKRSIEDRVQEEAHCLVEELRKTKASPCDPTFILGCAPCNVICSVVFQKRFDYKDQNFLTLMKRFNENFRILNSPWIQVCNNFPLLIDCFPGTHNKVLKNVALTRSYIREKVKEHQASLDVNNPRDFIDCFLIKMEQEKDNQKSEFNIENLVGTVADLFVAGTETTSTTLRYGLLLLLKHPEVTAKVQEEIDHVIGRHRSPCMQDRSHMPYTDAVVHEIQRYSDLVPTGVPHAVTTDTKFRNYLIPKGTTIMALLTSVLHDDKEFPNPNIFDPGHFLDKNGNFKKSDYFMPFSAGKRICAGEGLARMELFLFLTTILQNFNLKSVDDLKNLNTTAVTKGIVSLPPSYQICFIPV

CYP2D6 = CYP2D6 (Homo sapiens, UniProt P10635); assay: CYP inhibition assay; conditions: at 20 μM
CYP3A4 = CYP3A4 (Homo sapiens, UniProt P08684); assay: CYP inhibition assay; conditions: at 20 μM
[5] = Radiotelemetric measurement of blood pressure in rats; conditions: telemetric rats, within 24 h
[6] = Transverse aortic constriction; type: in vivo; conditions: mouse TAC
[7] = 10 mg/kg twice daily for 5 weeks
[8] = twice daily oral 10 or 50 mg/kg

Sequence of Nav1.5 (Q14524 whole entry): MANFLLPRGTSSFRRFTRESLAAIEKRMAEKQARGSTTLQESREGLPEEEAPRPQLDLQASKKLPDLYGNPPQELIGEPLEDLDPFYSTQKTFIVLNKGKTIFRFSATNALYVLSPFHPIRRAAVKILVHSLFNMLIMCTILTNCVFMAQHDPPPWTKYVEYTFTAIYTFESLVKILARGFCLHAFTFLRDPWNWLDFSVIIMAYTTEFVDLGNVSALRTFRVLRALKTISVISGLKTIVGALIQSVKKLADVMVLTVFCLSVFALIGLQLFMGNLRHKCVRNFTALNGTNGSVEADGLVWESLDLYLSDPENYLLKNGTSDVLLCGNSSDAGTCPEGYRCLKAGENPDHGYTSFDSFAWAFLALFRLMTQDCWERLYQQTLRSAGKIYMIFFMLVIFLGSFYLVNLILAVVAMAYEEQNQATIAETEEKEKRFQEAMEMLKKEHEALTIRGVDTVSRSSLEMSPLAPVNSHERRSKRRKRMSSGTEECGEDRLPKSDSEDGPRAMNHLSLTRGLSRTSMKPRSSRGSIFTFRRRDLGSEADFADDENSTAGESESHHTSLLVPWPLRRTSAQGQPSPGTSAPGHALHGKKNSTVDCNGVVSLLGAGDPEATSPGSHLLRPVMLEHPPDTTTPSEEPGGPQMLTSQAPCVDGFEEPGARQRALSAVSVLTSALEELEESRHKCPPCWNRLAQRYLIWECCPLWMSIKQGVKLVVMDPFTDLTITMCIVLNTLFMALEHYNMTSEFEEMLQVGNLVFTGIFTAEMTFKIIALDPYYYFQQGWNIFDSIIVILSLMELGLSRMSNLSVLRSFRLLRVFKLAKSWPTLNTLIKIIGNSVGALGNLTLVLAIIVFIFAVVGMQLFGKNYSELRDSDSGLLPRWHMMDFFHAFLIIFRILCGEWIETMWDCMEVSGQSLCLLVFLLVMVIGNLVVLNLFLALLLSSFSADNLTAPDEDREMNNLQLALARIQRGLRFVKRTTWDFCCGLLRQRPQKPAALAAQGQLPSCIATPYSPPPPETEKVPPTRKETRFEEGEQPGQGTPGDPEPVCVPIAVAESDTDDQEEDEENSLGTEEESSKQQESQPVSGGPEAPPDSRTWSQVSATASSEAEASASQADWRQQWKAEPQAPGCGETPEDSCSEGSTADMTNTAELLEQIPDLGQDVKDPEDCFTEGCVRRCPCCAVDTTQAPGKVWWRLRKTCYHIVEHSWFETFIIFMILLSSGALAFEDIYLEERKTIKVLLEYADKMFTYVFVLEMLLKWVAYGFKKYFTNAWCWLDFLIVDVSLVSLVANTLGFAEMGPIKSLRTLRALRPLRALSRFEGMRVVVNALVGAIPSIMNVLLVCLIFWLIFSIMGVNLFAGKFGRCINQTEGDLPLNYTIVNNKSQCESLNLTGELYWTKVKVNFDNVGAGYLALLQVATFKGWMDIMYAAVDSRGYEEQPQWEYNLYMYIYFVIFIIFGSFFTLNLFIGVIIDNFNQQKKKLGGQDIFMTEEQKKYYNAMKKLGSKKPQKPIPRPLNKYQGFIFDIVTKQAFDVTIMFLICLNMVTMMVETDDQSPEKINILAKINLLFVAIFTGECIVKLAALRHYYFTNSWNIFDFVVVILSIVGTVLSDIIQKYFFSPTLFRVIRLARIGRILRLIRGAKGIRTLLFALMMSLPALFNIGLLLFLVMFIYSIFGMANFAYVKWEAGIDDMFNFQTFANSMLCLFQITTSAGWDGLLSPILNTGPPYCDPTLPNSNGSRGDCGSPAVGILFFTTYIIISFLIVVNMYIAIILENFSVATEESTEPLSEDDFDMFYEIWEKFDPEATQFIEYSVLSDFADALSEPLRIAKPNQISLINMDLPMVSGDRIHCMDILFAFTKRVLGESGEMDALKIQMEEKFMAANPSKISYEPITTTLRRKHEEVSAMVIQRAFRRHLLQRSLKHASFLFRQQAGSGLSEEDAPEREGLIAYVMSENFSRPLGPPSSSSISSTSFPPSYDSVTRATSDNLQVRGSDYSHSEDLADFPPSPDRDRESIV
Sequence of CYP2D6 (P10635 whole entry): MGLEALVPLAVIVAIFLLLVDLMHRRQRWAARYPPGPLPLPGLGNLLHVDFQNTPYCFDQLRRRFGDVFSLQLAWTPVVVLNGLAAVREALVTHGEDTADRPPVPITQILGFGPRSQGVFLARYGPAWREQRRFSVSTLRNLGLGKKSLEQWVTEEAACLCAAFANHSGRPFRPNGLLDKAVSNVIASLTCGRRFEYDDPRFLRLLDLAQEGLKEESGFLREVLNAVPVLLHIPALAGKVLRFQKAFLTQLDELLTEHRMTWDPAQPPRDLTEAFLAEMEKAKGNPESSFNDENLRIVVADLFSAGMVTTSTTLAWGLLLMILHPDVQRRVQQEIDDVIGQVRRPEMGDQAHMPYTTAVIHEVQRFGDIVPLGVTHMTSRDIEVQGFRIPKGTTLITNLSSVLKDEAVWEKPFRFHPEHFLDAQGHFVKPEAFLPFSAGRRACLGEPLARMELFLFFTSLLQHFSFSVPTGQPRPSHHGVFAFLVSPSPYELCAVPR
Sequence of hERG (Q12809 whole entry): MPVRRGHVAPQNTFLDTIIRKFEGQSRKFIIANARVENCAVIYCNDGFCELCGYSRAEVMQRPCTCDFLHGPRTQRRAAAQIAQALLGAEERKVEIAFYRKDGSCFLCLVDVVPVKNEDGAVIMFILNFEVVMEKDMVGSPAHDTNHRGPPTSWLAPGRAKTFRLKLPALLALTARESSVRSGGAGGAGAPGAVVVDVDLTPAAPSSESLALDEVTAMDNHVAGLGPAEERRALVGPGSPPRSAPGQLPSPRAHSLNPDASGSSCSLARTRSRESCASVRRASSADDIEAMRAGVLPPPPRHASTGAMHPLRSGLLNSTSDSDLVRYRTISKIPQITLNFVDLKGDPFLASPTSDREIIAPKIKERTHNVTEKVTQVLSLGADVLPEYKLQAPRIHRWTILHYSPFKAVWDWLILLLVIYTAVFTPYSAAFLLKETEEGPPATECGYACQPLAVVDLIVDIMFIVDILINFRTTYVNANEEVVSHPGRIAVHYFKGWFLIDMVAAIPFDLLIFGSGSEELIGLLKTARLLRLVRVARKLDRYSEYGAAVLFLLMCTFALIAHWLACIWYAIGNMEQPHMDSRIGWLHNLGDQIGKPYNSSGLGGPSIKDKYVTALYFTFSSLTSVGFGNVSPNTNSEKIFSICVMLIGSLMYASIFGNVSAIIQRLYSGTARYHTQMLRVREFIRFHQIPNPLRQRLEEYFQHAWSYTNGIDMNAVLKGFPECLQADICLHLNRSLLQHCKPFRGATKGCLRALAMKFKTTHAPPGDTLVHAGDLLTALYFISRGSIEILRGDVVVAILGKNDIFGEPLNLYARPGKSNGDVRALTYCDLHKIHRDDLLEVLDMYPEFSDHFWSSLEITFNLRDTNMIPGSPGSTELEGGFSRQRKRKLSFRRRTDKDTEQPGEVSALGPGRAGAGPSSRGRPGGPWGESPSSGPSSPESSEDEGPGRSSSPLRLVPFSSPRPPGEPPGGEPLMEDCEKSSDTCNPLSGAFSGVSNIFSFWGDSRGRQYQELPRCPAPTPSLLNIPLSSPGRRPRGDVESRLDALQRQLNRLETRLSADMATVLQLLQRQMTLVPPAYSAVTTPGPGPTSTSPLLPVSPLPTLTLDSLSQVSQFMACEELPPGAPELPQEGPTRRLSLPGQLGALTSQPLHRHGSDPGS
Sequence of human PDE9A (O76083 whole entry): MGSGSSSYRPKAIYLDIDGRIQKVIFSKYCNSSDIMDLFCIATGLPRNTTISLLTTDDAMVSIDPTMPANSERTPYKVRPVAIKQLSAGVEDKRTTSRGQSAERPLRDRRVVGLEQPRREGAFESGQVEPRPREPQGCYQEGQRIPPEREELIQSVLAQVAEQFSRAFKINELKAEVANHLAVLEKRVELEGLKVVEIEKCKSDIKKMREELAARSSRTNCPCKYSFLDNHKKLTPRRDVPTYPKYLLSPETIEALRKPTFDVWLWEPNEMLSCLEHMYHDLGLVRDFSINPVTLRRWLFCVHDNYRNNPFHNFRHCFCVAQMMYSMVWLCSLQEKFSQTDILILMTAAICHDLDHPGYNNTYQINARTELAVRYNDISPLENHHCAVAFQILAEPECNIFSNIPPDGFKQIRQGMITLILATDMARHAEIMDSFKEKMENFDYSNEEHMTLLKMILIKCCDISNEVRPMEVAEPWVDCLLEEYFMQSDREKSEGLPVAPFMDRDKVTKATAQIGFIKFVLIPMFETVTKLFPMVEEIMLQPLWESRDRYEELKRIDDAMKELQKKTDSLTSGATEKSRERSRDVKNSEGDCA
Sequence of CYP3A4 (P08684 whole entry): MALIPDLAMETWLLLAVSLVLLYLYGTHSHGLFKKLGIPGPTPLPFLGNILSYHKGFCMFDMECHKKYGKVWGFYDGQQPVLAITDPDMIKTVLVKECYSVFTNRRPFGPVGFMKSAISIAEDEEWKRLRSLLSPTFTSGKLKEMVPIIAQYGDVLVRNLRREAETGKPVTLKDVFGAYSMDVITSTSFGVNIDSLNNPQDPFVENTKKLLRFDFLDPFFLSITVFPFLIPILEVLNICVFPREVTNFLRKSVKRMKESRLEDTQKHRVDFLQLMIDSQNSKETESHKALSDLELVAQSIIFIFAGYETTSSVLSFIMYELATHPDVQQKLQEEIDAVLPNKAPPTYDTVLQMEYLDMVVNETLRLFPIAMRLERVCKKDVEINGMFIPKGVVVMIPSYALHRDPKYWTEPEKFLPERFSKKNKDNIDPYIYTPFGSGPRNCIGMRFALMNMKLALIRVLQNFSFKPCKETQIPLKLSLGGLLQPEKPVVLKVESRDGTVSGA

SMILES: CCCC1CNCc2c1[nH]c(=O)c(C#N)c2N1CCC2(CC1)CC2.Cl (single isomer, unassigned; ent-4) [Compound 30, ent-4-(6-Azaspiro[2.5]octan-6-yl)-2-oxo-8-propyl-1,2,5,6,7,8-hexahydro-1,6-naphthyridine-3-carbonitrile Hydrochloride]
BEI binding efficiency index −log (IC50)/MW × 1000 (human PDE9A): 23.9
IC50 (mouse PDE9A): 34 nM
IC50 (rat PDE9A): 42 nM
PDE2A selectivity factor (PDE#-IC50/PDE9A-IC50) (PDE2A): >650x
PDE3B selectivity factor (PDE#-IC50/PDE9A-IC50) (PDE3B): >650x
PDE7B selectivity factor (PDE#-IC50/PDE9A-IC50) (PDE7B): >650x
PDE10A selectivity factor (PDE#-IC50/PDE9A-IC50) (PDE10A): >650x
clearance (Pharmacokinetics in dogs): 15 mL/min/kg
CYP1A2 induction (CYP1A2 [1]): no induction
concentrations at which CYP3A4 mRNA was induced (CYP3A4 mRNA): above 9.2 μM
reactive metabolites after incubation with rat hepatocytes [2]: no reactive metabolites were formed
reactive metabolites after incubation with human hepatocytes [3]: no reactive metabolites were formed
degradation in the presence of human hepatocytes ([3]; after 4 h of incubation): almost no degradation
inhibition of 75 off-targets (Panlabs) (75 off-targets (Panlabs)): clean profile
inhibition of cardiac ion channel hERG (hERG): clean profile
inhibition of cardiac ion channel Nav1.5 (Nav1.5): clean profile
genotoxicity in Ames test (Ames test): No genotoxicity
urinary cGMP versus vehicle (urinary cGMP): nonsignificant trend toward higher cGMP levels
inhibition of CYP1A2 (CYP1A2 [4]): No inhibition
inhibition of CYP2C8 (CYP2C8): No inhibition
inhibition of CYP2D6 (CYP2D6): No inhibition
inhibition of CYP3A4 (CYP3A4): No inhibition
effects on blood pressure ([5]; once daily oral 5 or 40 mg/kg): no significant effects
effects on heart rate ([5]; once daily oral 5 or 40 mg/kg): no significant effects

clearance (Pharmacokinetics in dogs): 8.33 mL/min/kg
SMILES: C[C@@H]1CN(Cc2ncccn2)C[C@H]1c1nc2c(cnn2C2CCOCC2)c(=O)[nH]1 [PF-04447943, 6-[(3S,4S)-4-Methyl-1-(pyrimidin-2-ylmethyl)pyrrolidin-3-yl]-1-(tetrahydro-2H-pyran-4-yl)-1,5-dihydro-4H-pyrazolo[3,4-d]pyrimidin-4-one, reference compound]
minimal diastolic left ventricular pressure (LVPmin) ([6]; 10 mg/kg bid for five weeks, 10 mg/kg): reduction
heart function (LVEDP, Tau) [6, 7]: trend for improvement
hypertrophy of the left atrium [6, 7]: statistically significant reduction
effects on blood pressure [5, 8]: no significant effects
effects on heart rate [5, 8]: no significant effects
